Reference: US11814366B2, “Antiviral compounds and use thereof” (UNIVERSITA DEGLI STUDI DI SIENA, priority 2018, dated 2023)
pEC50: −log10 of the molar value. “Also recorded” adds a separate entry of the source.

Legend:
HIV Strain NL4-3 = test: HIV-1 inhibition assay, strain NL4-3, TZM-bl cells, CPRG readout; format: cell-based; conditions: Human immunodeficiency virus 1, NL43, virus pretreated 1 h at 37° C. with compound
Procedure: The human TZM-bl indicator cell line (obtained from the NIH AIDS reagents program, cat. Nr 8129, www.aidsreagent.org) was maintained at 37° C. and 5% CO2 in Dulbecco's modified Eagle's medium (DMEM) medium containing 10% fetal bovine serum, 50 μg/ml penicillin, and 50 μg/ml streptomycin. The HIV-1 laboratory strains NL (AD8) (NIH AIDS reagents program, cat. Nr, 11346) and NL4.3 (NIH AIDS reagents program, cat. Nr. 114) were titrated as previously reported by Tiberi et al (2014). Briefly, serial 5-fold dilutions of each virus were made in quadruplicate wells in 96-well culture plates, in a total volume of 100 μl of growth medium (DMEM), for a total of 8 dilution steps. Freshly trypsinized cells (20,000 cells in 100 μl of growth medium containing 75 μg/mL DEAE-dextran) were added to each well, and the plates were incubated at 37° C. in a humidified 5% CO2-95% air environment. After 48 h of incubation, the medium was removed and viral infection was quantified using a β-galactosidase (CPRG) assay (Roche). Twenty thousand TZM-bl cells/well were seeded in 96-well plates in complete DMEM supplemented with 30 μg/ml DEAE-dextran (Sigma-Aldrich). Three hundred times the 50% tissue culture infective dose (TCID50)/ml of each strain was pretreated for 1 h at 37° C. with six serial dilutions (10000 nM, 2000 nM, 400 nM, 80 nM, 16 nM, 3.2 nM) and then added to the cells. Vehicle (0.1% dimethyl sulfoxide [DMSO])-treated cells served as a negative control. […] After 2 days, viral infection was quantified using a CPRG assay (Roche cat nr 11379119103). The inhibitory curves were fitted by nonlinear regression, allowing for the calculation of the 50% effective concentration (EC50) using the Prism software. To evaluate the cell toxicity of the compounds, the metabolic XTT [2,3-bis-(2-methoxy-4-nitro-5-sulfophenyl)-2H-tetrazolium-5-carboxanilide] test (Sigma-Aldrich) was performed according to the manufacturer's instructions.

ZIKAV = test: ZIKA virus plaque reduction assay on Vero cells; format: cell-based, Zika virus (PRVABC59)
H1N1 = H1N1 inhibition assay on MDCK cells; format: cell-based, Influenza virus H1N1
Procedure: MDCK cells were pre-plated in 96-well plates. The following day, concentrations of compounds ranging from 50 μM to 0.0001 μM in DMSO were mixed with H1N1 (MOI 0.05 pfu/cell) and incubated for 1 hour at 37° C. The mixtures were subsequently added to the cells for 1 h at 37° C., after a washout, cells were overlaid with MEM for 16 h at 37° C. Cells were then fixed and subjected to specific immunostaining using a Flu A monoclonal antibody (Merck 5001) in order to visualize infected cells. EC50 were calculated by comparing numbers of infected cells in treated and untreated wells. The effective concentration producing 50% reduction in plaque formation (EC50) was determined using Prism software. The selectivity index (SI) was calculated by dividing the CC50 by the EC50 value.

[1] = Cell viability (MTS) assay, HELF cells; format: cell-based; conditions: human, conditions of the HCMV assay
Procedure: (§1) Cell viability was measured using the MITS [3-(4,5-dimethylthiazol-2-yl)-5-(3 carboxy methoxy phenyl)-2-(4-sulfophenyl)-2H-tetrazolium] assay. Cell cultures were seeded in 96-well plates and were incubated with different concentrations of compounds of the invention in triplicate under the same experimental conditions described for the antiviral assays. Cell viability was determined using the CellTiter 96 Proliferation Assay Kit (Promega, Madison, WI, USA) according to the manufacturer's instructions. Absorbances were measured using a Microplate Reader (Model 680, BIORAD) at 490 nm. The effect on cell viability at different concentrations of the compound was expressed as a percentage, by comparing absorbances of treated cells with those of cells incubated with culture medium and equal volumes of vehicle. The 50% cytotoxic concentrations (CC50) and 95% confidence intervals (CIs) were determined using Prism software (Graph-Pad Software, San Diego, CA).

VSV = test: microbe, parasite or virus in culture; format: cell-based, Vesicular Stomatitis Virus (VSV); conditions: Vesicular stomatitis virus, Vero
[2] = Cell viability (MTS) assay, Huh-7 cells; format: cell-based; conditions: human, conditions of the DENV-2 assay (Table 6)
Procedure: as §1

HSV-2 [3] = test: Pretreatment assay, Vero cells treated before HSV-2; format: cell-based, Herpes 2 virus (HSV-2); conditions: Vero cells pretreated 2 h at 37° C., then HSV-2
Procedure: Vero Cells were pretreated for 2 h at 37° C. with increasing concentrations of compound 15b in DMSO the inocula were then removed cells washed and HSV-2 was added on cells for 2 h at 37° C. Subsequently the same protocol described above for the evaluation of HSV inhibition was followed.

HSV-2 [4] = test: Entry of virus into cell (ELISA, immunofluorescence); format: cell-based, Herpes 2 virus (HSV-2); conditions: 10 μM, HSV-2, Vero cells
Procedure: Cells were plated in 96 well plates. The following day 10 μM of compound 15b in DMSO and HSV-2 (MOI 10 pfu/cell) were incubated for 1 h at 37° C. and subsequently added on cells for 1 hour at 4° C. Cells were then washed and shifted at 37° C. for 1 h and 30 minutes. Cells were then fixed with 4% paraformaldehyde, air dried and permeabilized with PBS-TRITON (0.5%) and then the same protocol described for binding was followed.
Vero cells were pre-plated on coverslips and the following day the binding or entry protocol described above was applied. Cells were then fixed with 4% paraformaldehyde, air dried and for entry protocol permeabilized with PBS-TRITON. Blocking was performed with PBS-BSA1% for 1 h at room temperature and subsequently HSV-2 polyclonal antibody (B011402-2 Dako) (1:250) was added on cells, after 1 hour at 37° C. the inoculum was removed and coverslips were washed with PBS-TWEEN for 3 times. Rhodamine conjugated anti-rabbit IgG (Santa Cruz) was then added on cells for 1 h at 37° C. following 3 washes coverslips were mounted on microscope glasses and observed with Zeiss LSM510 fluorescence microscope (Zeiss, Oberkochen, Germany) and images were acquired (FIG. 3A, 3B).

[5] = Lipoperoxidation test (TBA assay)
Procedure: To evaluate the lipid oxidation capability of 15b, a lipoperoxidation test was carried out.
The effect of 15b was evaluated toward the oxidation of linoleic acid, incorporated in DPPC liposomes, using TBA assay. The assay is based on the reactivity of malondialdehyde (MDA), a colorless end-product of degradation, with 2-thiobarbituric acid (TBA) to produce a pink adduct (TBA-MDA-TBA) that absorbs at 535 nm. […] MDA was detected spectrophotometrically according to methods described in literature (Boon-Huat Bay, Yuan-Kun Lee, Benny Kwong-Huat Tan, Eng-Ang Ling, Lipid peroxidative stress and antioxidative enzymes in brains of milk-supplemented rats, Neuroscience Letters 277 (1999) 127-130).
15b was incubated at 37° C. for 2 h with a 0.5% linoleic acid containing liposome aqueous dispersion (Cagno, V.; Tintori, C.; Civra, A.; Cavalli, R.; Tiberi, M.; Botta, L.; Brai, A.; Poli, G.; Tapparel, C.; Lembo, D.; et al. Novel Broad Spectrum Virucidal Molecules against Enveloped Viruses. 2018). […] The organic supernatant was evaluated by spectrophotometry.
The calibration curve of TBA-MDA-TBA complex was obtained using a MDA precursor 1,1,3,3-tetraethoxypropane. […] The solutions were subjected to TBA assay and analyzed at spectrophotometer. […]

Structure (SMILES): O=C1NC(=S)N(CCc2ccccc2)C(=O)/C1=C\c1ccc(-c2ccc(C(=O)O)c(O)c2)[nH]1 [Compound 15b, (Z)-4-(5-((4,6-dioxo-1-phenethyl-2-thioxotetrahydropyrimidin-5(2H)-ylidene)methyl)-1H-pyrrol-2-yl)-2-hydroxybenzoic Acid]
- pEC50 (HIV Strain NL4-3): 7.19
- SI selectivity index (ZIKAV; ZIKAV, CC50 divided by EC50): >2563
- pEC50 (ZIKAV; Zika virus, Vero, ZIKAV infected cells): 7.36
- SI selectivity index (H1N1; H1N1, CC50 divided by EC50): >77
- pEC50 (H1N1; Influenza A virus, H1N1, MDCK): 5.91
- EC90 (H1N1; Influenza A virus, H1N1, MDCK): 3.88 µM
- CC50 [1]: 36.3 µM
- pEC50 (VSV): 6.84
- EC90 (VSV): 2.17 µM
- CC50 [2]: 7.9 µM
- antiviral activity in pre-treatment assay (HSV-2 [3]): inactive
- percentage of internalized virus (HSV-2 [4]): decreased; also recorded: lower
- lipid oxidation capability ([5]; 37° C. for 2 h, 0.5% linoleic acid containing liposomes, MDA readout): able to oxidize polyunsaturated fatty acids
- oxidation of linoleic acid with tocopherol added ([5]; with 0.05% w/w (±)-α-tocopherol as antioxidant): reduced the oxidation of linoleic acid
